# Key:
# [1] = for decomposition in SGF: 37 °C, within 120 min
# [2] = Transmission electron microscopy; type: physicochemical; settings: for micelle formation (TEM): 50.0 μM, pH 7.4 phosphate buffer
# [3] = Stability in GSH environment; type: physicochemical; settings: 20 mM GSH, pH 7.4 phosphate buffer, 37 °C
# AdV5 = type: cell-based, adenovirus (AdV) 5; settings: A549 cells
SMILES,micelle formation (TEM) [2],stability in GSH environment relative to 1c [3],also measured
"CCCCCCCCCCCCCCSSCCOP(=O)(O)CO[C@H](CO)Cn1ccc(N)nc1=O.N [Compound 1c, 2-(tetradecyldisulfanyl)ethyl hydrogen ((((S)-1-(4-amino-2-oxopyrimidin-1(2H)-yl)-3-hydroxypropan-2-yl)oxy)methyl)phosphonate]",could form micelles,,"remaining in SGF ([1]; SGF pH 2.0, 37 °C, after 120 min): approximately 77%; remaining after incubation with GSH ([3]; after 360 min): approximately 13%; fold TI relative to BCV (VACV): 2.8 fold"
"CCCCCCCCCCCCCCCCSSCCOP(=O)(O)CO[C@H](CO)Cn1ccc(N)nc1=O.N [Compound 1d, 2-(hexadecyldisulfanyl)ethyl hydrogen ((((S)-1-(4-amino-2-oxopyrimidin-1(2H)-yl)-3-hydroxylpropan-2-yl)oxy)methyl)phosphonate]",could form micelles,significant enhancement in stability,
"CCCCCCCCCCCCCCCCCCSSCCOP(=O)(O)CO[C@H](CO)Cn1ccc(N)nc1=O.N [Compound 1e, 2-(octadecyldisulfanyl)ethyl hydrogen ((((S)-1-(4-amino-2-oxopyrimidin-1(2H)-yl)-3-hydroxypropan-2-yl)oxy)methyl)phosphonate]",could form micelles,significant enhancement in stability,stability of micelles in GSH environment (TEM) ([2]; incubated for 4 h in GSH environment): could keep stable
"CCCCCCCCCCCCCCSSCCCOP(=O)(O)CO[C@H](CO)Cn1ccc(N)nc1=O.N [Compound 1h, 3-(tetradecyldisulfanyl)propyl hydrogen ((((S)-1-(4-amino-2-oxopyrimidin-1(2H)-yl)-3-hydroxypropan-2-yl)oxy)methyl)phosphonate]",,significant enhancement in stability,
"CCCCCCCCCCCCCCSSCCCCOP(=O)(O)CO[C@H](CO)Cn1ccc(N)nc1=O.N [Compound 1m, 4-(tetradecyldisulfanyl)butyl hydrogen ((((S)-1-(4-amino-2-oxopyrimidin-1(2H)-yl)-3-hydroxypropan-2-yl)oxy)methyl)phosphonate]",,significant enhancement in stability,
"CCCCCCCCCCCCCCCCSSCCCCOP(=O)(O)CO[C@H](CO)Cn1ccc(N)nc1=O.N [Compound 1n, 4-(hexadecyldisulfanyl)butyl hydrogen ((((S)-1-(4-amino-2-oxopyrimidin-1(2H)-yl)-3-hydroxypropan-2-yl)oxy)methyl)phosphonate]",could form micelles,,decomposition in SGF [1]: not decomposed
"CCCCCCCCSSCCCCCCOP(=O)(O)CO[C@H](CO)Cn1ccc(N)nc1=O.N [Compound 1o, 6-(octyldisulfanyl)hexyl hydrogen ((((S)-1-(4-amino-2-oxopyrimidin-1(2H)-yl)-3-hydroxypropan-2-yl)oxy)methyl)phosphonate]",,,"TI (therapeutic index, CC50/IC50) (VACV): >4"
"CCCCCCCCCCCCSSCCCCCCOP(=O)(O)CO[C@H](CO)Cn1ccc(N)nc1=O.N [Compound 1q, 6-(dodecyldisulfanyl)hexyl hydrogen ((((S)-1-(4-amino-2-oxopyrimidin-1(2H)-yl)-3-hydroxypropan-2-yl)oxy)methyl)phosphonate]",,,decomposition in SGF [1]: not decomposed; fold increase in TI value compared to BCV (anti-AdV5) (AdV5): 8.9 fold
"CCCCCCCCCCCCCCSSCCCCCCOP(=O)(O)CO[C@H](CO)Cn1ccc(N)nc1=O.N [Compound 1r, 6-(tetradecyldisulfanyl)hexyl hydrogen ((((S)-1-(4-amino-2-oxopyrimidin-1(2H)-yl)-3-hydroxypropan-2-yl)oxy)methyl)phosphonate]",could form micelles,significant enhancement in stability,

# Reference: publication PMC10290961 (European Journal of Medicinal Chemistry, 2023)
